Patent publication US6355673B1, “Substituted diaminocarboxylic acids” (Aventis Pharma Deutschland GmbH, priority 1997, dated 2002)

Legend:
[1] = target: T1, stromelysin (MMP-3) (Homo sapiens, UniProt P08254); experiment: Enzyme inhibition of the catalytic domain of human stromelysin (fluorogenic substrate); assay type: biochemical; conditions: 15 min preincubation, pH=6.5, fluorescence 328 nm (ex)/393 nm (em)
T1 construct: enzymatic activity of the catalytic domains of human stromelysin and of neutrophil collagenase; made in house
Method: (§1) Preparation and determination of the enzymatic activity of the catalytic domains of human stromelysin and of neutrophil collagenase.
(§2) The enzymes stromelysin (MMP-3) and neutrophil collagenase (MMP-8) were prepared according to Ye et al. (Biochemistry; 31 (1992) pages 11231-11235). To measure the enzyme activity or the enzyme inhibitor action, 70 μl of buffer solution and 10 μl of enzyme solution are incubated for 15 min with 10 μl of a 10% strength (v/v) aqueous dimethyl sulfoxide solution, which optionally contains the enzyme inhibitor. After addition of 10 μl of a 10% strength (v/v) aqueous dimethyl sulfoxide solution which contains 1 mil/L of the substrates, the enzyme reaction is monitored by fluorescence spectroscopy (328 nm (ex)/393 nm(em)). The enzyme activity is shown as the extinction increase/min. The IC50 values listed in Table 2 are determined as those inhibitor concentrations which in each case lead to a 50% inhibition of the enzyme.
(§3) The buffer solution contains 0.05% Brij (Sigma, Deisenhofen, Germany) and also 0.1 mol/L tris/HCl, 0.1 mol/L NaCl, 0.01 mol/L CaCl2 and 0.1 mol/L piperazine-N,N′-bis(2-ethanesulfonic acid) (pH=6.5). The enzyme solution contains 5 μg/ml of one of the enzyme domains prepared according to Ye et al. The substrate solution contains 1 mil/L of the fluorogenic substrate (7-methoxycoumarin-4-yl)acetyl-Pro-Leu-Gly-Leu-3-(2′,4′-dinitrophenyl)-L-2,3-diaminopropionyl-Ala-Arg-NH2 (Bachem, Heidelberg, Germany).

[2] = target: T2, neutrophil collagenase (MMP-8) (Homo sapiens, UniProt P22894); experiment: Enzyme inhibition of the catalytic domain of neutrophil collagenase (fluorogenic substrate); assay type: biochemical; conditions: 15 min preincubation, pH=6.5, fluorescence 328 nm (ex)/393 nm (em)
T2 construct: enzymatic activity of the catalytic domains of human stromelysin and of neutrophil collagenase; made in house
Method: as §1, §2, §3

T2 sequence (P22894 100-262 limits assumed): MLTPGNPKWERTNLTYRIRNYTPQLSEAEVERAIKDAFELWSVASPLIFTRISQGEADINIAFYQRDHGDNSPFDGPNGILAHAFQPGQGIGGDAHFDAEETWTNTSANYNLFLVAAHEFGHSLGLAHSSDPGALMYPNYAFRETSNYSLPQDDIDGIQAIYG
T1 sequence (P08254 100-272 limits assumed): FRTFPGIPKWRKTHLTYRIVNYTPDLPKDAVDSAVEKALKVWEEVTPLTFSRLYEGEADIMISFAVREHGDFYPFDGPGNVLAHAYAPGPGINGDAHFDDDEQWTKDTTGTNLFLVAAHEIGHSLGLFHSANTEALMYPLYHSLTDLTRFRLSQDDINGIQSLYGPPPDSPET

Compound | IC50 [1] [nM] | IC50 [2] [nM]
O=C(CC(C(=O)O)c1ccccc1)NCCC[C@@H](NS(=O)(=O)c1ccc(-c2ccc(Cl)cc2)cc1)C(=O)O (single isomer, unassigned) [Example 38] | 5 | 2
O=C(CC(C(=O)O)c1ccccc1)NCCC[C@@H](NS(=O)(=O)c1ccc(-c2ccc(Cl)cc2)cc1)C(=O)O (single isomer, unassigned) [Example 39] | 20 | 30
O=C(NCCC[C@H](NS(=O)(=O)c1ccc(-c2ccc(Cl)cc2)cc1)C(=O)O)NS(=O)(=O)c1ccccc1 (single isomer, unassigned) [Example 61] | 6 | 2
NC(=O)NCCC[C@@H](NS(=O)(=O)c1ccc(-c2ccc(Cl)cc2)cc1)C(=O)O [Example 1, (R)-(4-Chlorobiphenylsulfonyl)citrulline] | 50 | 7
CC(C)(C)OC(=O)NCCCC[C@@H](NS(=O)(=O)c1ccc(-c2ccc(Cl)cc2)cc1)C(=O)O [Example 2, R-(4-Chlorobiphenylsulfonyl)-Lys(Boc)-OH] | 20 | 6
Cc1oncc1C(=O)NCCCC[C@@H](NS(=O)(=O)c1ccc(-c2ccc(Cl)cc2)cc1)C(=O)O [Example 4, 4-Chlorobiphenylsulfonyl-N-epsilon-(5-methylisoxazol-4-carbonyl)-Lys-OH] | 90 | 20
O=C(NCCC[C@H](NS(=O)(=O)c1ccc(-c2ccc(Cl)cc2)cc1)C(=O)O)NS(=O)(=O)c1ccccc1 [Example 5, (4-Chlorobiphenylsulfonyl)-N-delta-(phenylsulfonylamino-carbonyl)-Orn-OH] | 50 | 4
O=C(O)[C@@H](CCCN1Cc2ccccc2C1=O)NS(=O)(=O)c1ccc(-c2ccc(Cl)cc2)cc1 [Example 7, 2-(2R)-(4-Chlorobiphenylsulfonylamino)-5-(1-oxo-1,3-dihydro-isoindol-2-yl)pentanoic acid] | 4 | 2
CC(=O)NCCCC[C@@H](NS(=O)(=O)CCc1ccc(-c2ccccc2)cc1)C(=O)O [Example 9, R-(4-Biphenylethylsulfonyl)-N-epsilon-acetyl-Lys-OH] | 60 | 70
NCCCC[C@H](NS(=O)(=O)c1ccc(-c2ccc(Cl)cc2)cc1)C(=O)O [Example 12] | 60 | 10
CC(C)(C)OC(=O)NCCC[C@H](NS(=O)(=O)c1ccc(-c2ccc(Cl)cc2)cc1)C(=O)O [Example 14] | 5 | 3
O=C(NCCC[C@H](NS(=O)(=O)c1ccc(-c2ccc(Cl)cc2)cc1)C(=O)O)OCc1ccccc1 [Example 15] | 20 | 8
O=C(NCCCC[C@H](NS(=O)(=O)c1ccc(-c2ccc(Cl)cc2)cc1)C(=O)O)OCc1ccccc1 [Example 16] | 20 | 10
CC(=O)NCSC[C@@H](NS(=O)(=O)c1ccc(-c2ccc(Cl)cc2)cc1)C(=O)O [Example 18] | 70 | 10
O=C(NCCC[C@H](NS(=O)(=O)c1ccc(-c2ccc(Cl)cc2)cc1)C(=O)O)c1cnccn1 [Example 19] | 20 | 5
Cc1oncc1C(=O)NCCC[C@@H](NS(=O)(=O)c1ccc(-c2ccc(Cl)cc2)cc1)C(=O)O [Example 20] | 40 | 7
Cc1ccc(S(=O)(=O)NC(=N)NCCC[C@H](NS(=O)(=O)c2ccc(-c3ccc(Cl)cc3)cc2)C(=O)O)cc1 [Example 21] | 70 | 20
Cc1ccc(S(=O)(=O)NC(=N)NCCC[C@@H](NS(=O)(=O)c2ccc(-c3ccc(Cl)cc3)cc2)C(=O)O)cc1 [Example 22] | 80 | 80
NC(=O)NCCCC[C@@H](NS(=O)(=O)c1ccc(-c2ccc(Cl)cc2)cc1)C(=O)O [Example 23] | 40 | 5
NC(=O)NCCCC[C@H](NS(=O)(=O)c1ccc(-c2ccc(Cl)cc2)cc1)C(=O)O [Example 24] | 30 | 5

Compound | IC50 [1] [nM] | IC50 [2] [nM]
N/C(=N\[N+](=O)[O-])NCCC[C@H](NS(=O)(=O)c1ccc(-c2ccc(Cl)cc2)cc1)C(=O)O [Example 25] | 60 | 10
N/C(=N\[N+](=O)[O-])NCCC[C@@H](NS(=O)(=O)c1ccc(-c2ccc(Cl)cc2)cc1)C(=O)O [Example 26] | 60 | 7
CC(C)(C)OC(=O)NCCC[C@H](NS(=O)(=O)c1ccc(-c2ccc(Cl)cc2)cc1)C(=O)O [Example 36] |  | 2
O=C(NCCC[C@@H](NS(=O)(=O)c1ccc(-c2ccc(Cl)cc2)cc1)C(=O)O)C1CC1 [Example 41] | 5 | 2
O=C(NCCC[C@@H](NS(=O)(=O)c1ccc(-c2ccc(Cl)cc2)cc1)C(=O)O)Nc1ccccc1 [Example 42] | 10 | 3
CN(C)c1ccc(C(=O)NCCC[C@@H](NS(=O)(=O)c2ccc(-c3ccc(Cl)cc3)cc2)C(=O)O)cc1 [Example 43] | 40 | 20
CC(=O)Oc1ccccc1C(=O)NCCC[C@H](NS(=O)(=O)c1ccc(-c2ccccc2)cc1)C(=O)O [Example 44] | 30 | 6
O=C(NCCC[C@H](NS(=O)(=O)c1ccc(-c2ccccc2)cc1)C(=O)O)c1ccccc1O [Example 45] | 20 | 4
CC(C)(C)CC(=O)NCCC[C@@H](NS(=O)(=O)c1ccc(-c2ccc(Cl)cc2)cc1)C(=O)O [Example 46] | 10 | 3
O=C(NCCC[C@@H](NS(=O)(=O)c1ccc(-c2ccc(Cl)cc2)cc1)C(=O)O)c1ccc(F)cc1 [Example 47] | 10 | 3
O=C(NCCC[C@@H](NS(=O)(=O)c1ccc(-c2ccc(Cl)cc2)cc1)C(=O)O)c1ccc2c(c1)OCO2 [Example 48] | 20 | 7
CC(C)(C)CC(=O)NCCC[C@H](NS(=O)(=O)c1ccc(-c2ccc(Cl)cc2)cc1)C(=O)O [Example 49] | 20 | 3
O=C(NCCC[C@H](NS(=O)(=O)c1ccc(-c2ccc(Cl)cc2)cc1)C(=O)O)c1ccccn1 [Example 50] | 6 | 2
O=C(NCCC[C@H](NS(=O)(=O)c1ccc(-c2ccc(Cl)cc2)cc1)C(=O)O)c1cccnc1 [Example 51] | 20 | 3
COc1ccc(C(=O)NCCC[C@H](NS(=O)(=O)c2ccc(-c3ccc(Cl)cc3)cc2)C(=O)O)cc1OC [Example 52] | 20 | 10
C[C@H](NC(=O)OC(C)(C)C)C(=O)NCCC[C@H](NS(=O)(=O)c1ccc(-c2ccc(Cl)cc2)cc1)C(=O)O [Example 53] | 30 | 6
O=C(CC(C(=O)O)c1ccccc1)NCCC[C@H](NS(=O)(=O)c1ccc(-c2ccc(Cl)cc2)cc1)C(=O)O (stereo partly shown) [Example 55] | 7 | 3
COc1ccc(S(=O)(=O)NCCC[C@H](NS(=O)(=O)c2ccc(-c3ccc(Cl)cc3)cc2)C(=O)O)cc1 [Example 56] | 10 | 8
CC(C)(C)C(=O)NCCC[C@H](NS(=O)(=O)c1ccc(-c2ccc(Cl)cc2)cc1)C(=O)O [Example 57] | 40 | 8
CN(C)c1ccc(-c2ccc(S(=O)(=O)N[C@@H](CCCNC(=O)OC(C)(C)C)C(=O)O)cc2)cc1 [Example 59] | 5 | 1
